Laboratory results taken from US20250144187A1, “COMBINATION OF HYDROLASES AND ANTI-MICROORGANISM DRUGS AND USES THEREOF” (CENTRE FOR EYE AND VISION RESEARCH LIMITED, priority 2023, published 2025).
Values joined by “and” are separate entries in the source; they are usually repeats but may differ in a detail not shown here. Equal values may be shown once.

Key:
MRSA [1] = experiment: Check board broth micro-dilution assay, cefdinir with lysozyme; type: cell-based, Staphylococcus aureus; conditions: for effect of LTA/WTA synthesis inhibitor on cefdinir/lysozyme combination (FICI): inhibitor added into bacterial suspension
Protocol: 2) Check board broth micro-dilution assays. According to standard two-fold dilution method [Sun H et al., Nat Commun 11, 5263 (2020)], cefdinir at different concentration was added into fresh LB medium (or trypticase soy broth medium with 5% defibrinated horse blood) containing different concentration of human lysozyme in 96-wells plate. After well mixed, about 20 μl of 1.0×10^7 CFU/ml logarithmic cultures of MRSA, MRSE, Streptococcus pyogenes (S. py), Streptococcus mutans (S. mu), Enterococcus faecium (E. faecium), Enterococcus faecalis (E. faecalis) and Corynebacterium pseudodiphtheriticum (C. ps) were added into each well of the plate und co-incubated overnight, Wells without any drugs served as growth controls, and wells without bacteria served as background controls. The inhibition ratio was calculated as [1−(ODsample−ODbackground)/(ODcontrol−ODbackground)]×100%. Besides, bacterial growth inhibition was also monitored by serial dilution in LB-agar plate. CFU was counted by performing 10-fold serial dilution in PBS and then spotting 10 μl of dilutions in LB-agar plate. The MIC was determined as the lowest concentration of a drug that could inhibit the […] growth of microorganism by both visual CFU and OD600 using a microtiter plate reader. Fractional inhibitory concentration (FIC) and fractional inhibitory concentration index (FICI) values were determined by standard method. Briefly, FICI=MICAB/MICA+MICBA/MICB=FICA+FICB. […] Thus, there would be a series of FICI values. In most of Cases the lowest one among these values was listed to reflect the best achieving degree of combination therapy. In terms of the lowest FICI, FICI≤0.5, 0.5<FICI<1 or FICI≥1, would indicate the combination has synergy, part synergy or non-synergy effects, respectively.

MRSA [2] = experiment: High-throughput screening of 1953 FDA-approved compounds with human lysozyme; type: cell-based, Staphylococcus aureus; conditions: compound 25 μM + 1 mg/ml lysozyme, 24-hour
Protocol: (§1) 1) High-throughput screening. According to standard screening method [Zhong. […] Commun. 11, 523 (2020)], 1953 FDA-approved compounds from our drugs library at a fixed concentrations of 25 μM were screened against methicillin-resistant Staphylococcus aureus (MRSA) and Staphylococcus epidermis (a coagulase negative Staphylococci, MRSE), in combination with human lysozyme. Specifically, these compounds were added into bacterial suspensions (1×10^5 CFU/ml, in LB medium) in the absence or presence of 1 mg/ml lysozyme. LB medium without bacteria served as background group. Then, the real-time growth curvet of MRSA were monitored per hour and for 24 hours. Absorbance at 600 am (OD600) of bacterial culture at the time point of 24-hour was also measured. The inhibition ratio (%) was calculated as (ODcontrol−ODsample)/(ODcontrol−ODbackground)×100%. […] Herein, the relative and apparent inhibition ratios indicated the combination effect and potential toxicity of compound, respectively. Synergy effect was defined as the relative inhibition ratio of ≥90%. All assays were performed in triplicate.

MRSE [3] = experiment: as above; type: cell-based, Staphylococcus epidermis; conditions: compound 25 μM + 1 mg/ml lysozyme, 24-hour
Protocol: as §1

MRSE [4] = experiment: Check board broth micro-dilution assay, cefdinir with lysozyme; type: cell-based, Staphylococcus epidermidis; conditions: lysozyme alone
Protocol: 2) Check board broth micro-dilution assays. According to standard two-fold dilution method [Sun H et al., Nat Commun 11, 5263 (2020)], cefdinir at different concentration was added into fresh LB medium (or trypticase soy broth medium with 5% defibrinated horse blood) containing different concentration of human lysozyme in 96-wells plate. After well mixed, about 20 μl of 1.0×10^7 CFU/ml logarithmic cultures of MRSA, MRSE, Streptococcus pyogenes (S. py), Streptococcus mutans (S. mu), Enterococcus faecium (E. faecium), Enterococcus faecalis (E. faecalis) and Corynebacterium pseudodiphtheriticum (C. ps) were added into each well of the plate und co-incubated overnight, Wells without any drugs served as growth controls, and wells without bacteria served as background controls. The inhibition ratio was calculated as [1−(ODsample−ODbackground)/(ODcontrol−ODbackground)]×100%. Besides, bacterial growth inhibition was also monitored by serial dilution in LB-agar plate. CFU was counted by performing 10-fold serial dilution in PBS and then spotting 10 μl of dilutions in LB-agar plate. The MIC was determined as the lowest concentration of a drug that could inhibit the […] growth of microorganism by both visual CFU and OD600 using a microtiter plate reader. Fractional inhibitory concentration (FIC) and fractional inhibitory concentration index (FICI) values were determined by standard method. […]

MRSA [5] = experiment: Time-killing curves, auranofin/lysozyme; type: cell-based, Staphylococcus aureus; conditions: drug alone: 0.34 μg/ml auranofin or 0.5 mg/ml lysozyme
Protocol: 2) Time-killing curves According to standard method [K. R. V. Thappeta et al., (2020) ACS Infect Dis 6: 1228-1237], over-night cultured MRSA was diluted and aliquoted into new sterile tubes at 1:1000 ratio. Then, the bacterial suspension was co-cultured with […] auranofin, 0.5 mg/ml lysozyme or their combination at 37° C. with shaking at 200 rpm. Similar bacterial suspension without any additions served as control group. Then, 20 μl of each culture was extracted at time intervals of […] and 22 hours to determine CFUs by spotting 10 μl of 10-fold dilution on the LB agar plates and incubating at 37° C. for 24 hours prior to enumeration. All assays were performed in triplicate.

MRSE [6] = experiment: Check board broth micro-dilution assay, tedizolid phosphate with lysozyme; type: cell-based, Staphylococcus epidermis; conditions: lysozyme alone
Protocol: (§2) 2) Check board broth micro-dilution assays. According to standard two-fold dilution method [Sun. H et al., Nat. Commun. 11, 5263 (2020) tedizolid phosphate at different concentrations were added into fresh LB medium (or trypticase soy troth medium with 5% defibrinated horse blood) containing different concentrations of human lysozyme in 96-well plate. Then, 20 μl of 1.0×10^7 CFU/ml logarithmic cultures of MRSA or MRSE were added into each well of the plate and co-incubated overnight. Drug-free LB medium in the absence or presence of bacteria served as background control and growth control group, respectively. […] Thus, there would be a series of FICI values. In most of cases, the lowest one among these values was listed to reflect the best achieving degree of combination therapy. In terms of the lowest FICI, FICI≤0.5, 0.5<FICI<1 or FICI≥1, would indicate the combination has synergy, part synergy or non-synergy effects, respectively.

MRSA [7] = experiment: as above; type: cell-based, Staphylococcus aureus
Protocol: as §2

[8] = system: methicillin-resistant Staphylococcus aureus USA 300 (MRSA, ATCC-BAA1556); experiment: Check board broth micro-dilution assay, auranofin with human lysozyme; type: cell-based
Protocol: Then, about 5.0×10^5 colony-forming units (CFUs) of methicillin-resistant Staphylococcus aures (MRSA, USA300 strain) in log phase were added into each well for overnight culture. Bacterial growth inhibition was monitored by optical density at 600 nm (OD600) and colony units in serial dilution in LB agar plate. Well without any drug served as growth control, and well without bacteria served as background control. The inhibition ratio was calculated as […]. CFUs were counted by 10-fold serial dilution in phosphate buffered saline (PBS) and 10 μl of dilutions were spotted in LB agar plate. […] Briefly, FICI=MICAB/MICA+MICBA/MICB=FICA+FICB. […] Thus, there would be a series of FICI values. In most of cases, the lowest one among these values was listed to reflect the best achieving degree of combination therapy. In terms of the lowest FICI, FICI≤0.5, 0.5<FICI<1 or FICI≥1, would indicate whether the combination has synergy, part synergy or non-synergy effects, respectively. Besides, to better highlight the inhibition degree of bacterial growth in combination therapy or identify whether combination therapy has synergy effect, results might be shown by heat-maps or line-charts containing different FICI values, although they were performed by using same 2-fold dilution method. All assays were performed in triplicate.

O=C(COC(=O)Cc1coc2ccc3ccccc3c12)Nc1nnc(-c2ccccc2)o1 [LtaS-IN-1]
effect of LTA/WTA synthesis inhibitor on cefdinir/lysozyme combination (FICI) (MRSA [1]): abolish the combination effect

CCN(CC)c1nc2c(S(=O)(=O)c3ccc(Cl)cc3)nnn2c2cc(OC)c(OC)cc12 [Targocil]
effect of LTA/WTA synthesis inhibitor on cefdinir/lysozyme combination (FICI) (MRSA [1]): abolish the combination effect

CC1(C)S[C@@H]2[C@H](NC(=O)[C@H](N)c3ccccc3)C(=O)N2[C@H]1C(=O)OCOC(=O)[C@@H]1N2C(=O)C[C@H]2S(=O)(=O)C1(C)C [Sultamicillin]
Growth inhibition ratio (mean ± SD, %) MRSA (MRSA [2]): 58.05 ± 16.75%
Growth inhibition ratio (mean ± SD, %) MRSE (MRSE [3]): 45.94 ± 13.49%

C[C@@H](O)[C@H]1C(=O)N2C(C(=O)O)=C(S[C@@H]3CN[C@H](CNS(N)(=O)=O)C3)[C@H](C)[C@H]12 [Doripenem Hydrate]
Growth inhibition ratio (mean ± SD, %) MRSA (MRSA [2]): 82.4 ± 5.63%
Growth inhibition ratio (mean ± SD, %) MRSE (MRSE [3]): 11.18 ± 6.16%

CCN1CCN(C(=O)N[C@@H](C(=O)N[C@@H]2C(=O)N3C(C(=O)O)=C(CSc4nnnn4C)CS[C@H]23)c2ccc(O)cc2)C(=O)C1=O [Cefoperazone]
Growth inhibition ratio (mean ± SD, %) MRSA (MRSA [2]): 71.74 ± 5.27%
Growth inhibition ratio (mean ± SD, %) MRSE (MRSE [3]): −16.2 ± 8.93%

CC(C)(O/N=C(\C(=O)N[C@@H]1C(=O)N2C(C(=O)[O-])=C(C[n+]3ccccc3)CS[C@H]12)c1csc(N)n1)C(=O)O [Ceftazidime Pentahydrate]
Growth inhibition ratio (mean ± SD, %) MRSA (MRSA [2]): 45.07 ± 6.86%
Growth inhibition ratio (mean ± SD, %) MRSE (MRSE [3]): 34.84 ± 3.23%

CC1(C)S[C@@H]2[C@H](NC(=O)[C@H](NC(=O)N3CCN(S(C)(=O)=O)C3=O)c3ccccc3)C(=O)N2[C@H]1C(=O)O [Mezlocillin Sodium]
Growth inhibition ratio (mean ± SD, %) MRSA (MRSA [2]): 90.46 ± 1.59%
Growth inhibition ratio (mean ± SD, %) MRSE (MRSE [3]): 6.93 ± 8.22%

CC[C@H]1OC(=O)C[C@@H](O)[C@H](C)[C@@H](O[C@@H]2O[C@H](C)[C@@H](O)[C@H](N(C)C)[C@H]2O)[C@@H](CCN2C[C@H](C)C[C@H](C)C2)C[C@@H](C)C(=O)/C=C/C(C)=C/[C@@H]1CO[C@@H]1O[C@H](C)[C@@H](O)[C@@H](OC)[C@H]1OC [Tilmicosin]
Growth inhibition ratio (mean ± SD, %) MRSA (MRSA [2]): 91.59 ± 0.63%
Growth inhibition ratio (mean ± SD, %) MRSE (MRSE [3]): 4.91 ± 8.1%

COC(=O)[C@]12CCC(C)(C)C[C@H]1[C@H]1C(=O)C=C3[C@@]4(C)C=C(C#N)C(=O)C(C)(C)[C@@H]4CC[C@@]3(C)[C@]1(C)CC2 [Bardoxolone Methyl]
Growth inhibition ratio (mean ± SD, %) MRSA (MRSA [2]): 29.95 ± 40.66%
Growth inhibition ratio (mean ± SD, %) MRSE (MRSE [3]): 81.67 ± 1.61%

N#C/C(=C1/SC[C@@H](c2ccc(Cl)cc2Cl)S1)n1ccnc1 [Luliconazole]
Growth inhibition ratio (mean ± SD, %) MRSA (MRSA [2]): −9.69 ± 5.58%
Growth inhibition ratio (mean ± SD, %) MRSE (MRSE [3]): 22.39 ± 10.76%

lysozyme: Human lysozyme (C-type) supplied by Sigma-Aldrich; hydrolase used in combination with the drugs
minimum inhibitory concentration (MIC) of human lysozyme (MRSE [4]): > 150 mg/mL
minimum inhibitory concentration (MIC) of human lysozyme (MRSA [1]; lysozyme alone): > 150 mg/mL and 150 mg/mL
drop of MIC value of lysozyme (MRSA [1]; with cefdinir at ca. 0.75 μg/ml): 1200 folds
MIC value of lysozyme (MRSA [1]; with cefdinir at ca. 0.75 μg/ml (1.89 μM)): 0.125 mg/mL
inhibition effect on growth of MRSA at exponential phase (MRSA [5]): few inhibitions effect
minimum inhibitory concentration (MIC) of human lysozyme (MRSE [6]): > 150 mg/mL
minimum inhibitory concentration (MIC) of human lysozyme (MRSA [7]; lysozyme alone): > 150 mg/mL
reduction of the MIC value of lysozyme (MRSA [7]; with tedizolid phosphate at ca. 0.19 μg/ml): 1200 fold
MIC value of lysozyme (MRSA [7]; with tedizolid phosphate at ca. 0.19 μg/ml (0.4 μM, 0.004 MIC)): 0.1235 mg/mL
lysozyme level to which MRSA is sensitive (MIC) ([8]; 0.17 μg/ml auranofin used in combination): 1.0 mg/mL
lysozyme level to which MRSA is sensitive (MIC) ([8]; lysozyme alone): ≥ 150 mg/mL

CC/C=C(\C(=O)N[C@@H]1C(=O)N2C(C(=O)OCOC(=O)C(C)(C)C)=C(COC(N)=O)CS[C@H]12)c1csc(N)n1.Cl [Cefcapene Pivoxil Hydrochloride]
Growth inhibition ratio (mean ± SD, %) MRSA (MRSA [2]): 18.64 ± 7.49%
Growth inhibition ratio (mean ± SD, %) MRSE (MRSE [3]): 3.23 ± 3.04%

C[C@@H](O)[C@H]1C(=O)N2C(C(=O)O)=C(S[C@@H]3CN[C@H](C(=O)N(C)C)C3)[C@H](C)[C@H]12 [Meropenem Trihydrate]
Growth inhibition ratio (mean ± SD, %) MRSA (MRSA [2]): 48.19 ± 11.14%
Growth inhibition ratio (mean ± SD, %) MRSE (MRSE [3]): 20.45 ± 65.79%

poly-l-lysine
FICI (MRSA [7]; poly-l-lysine in place of lysozyme, combined with tedizolid phosphate): 0.375

N#CC(C#N)=NNc1cccc(Cl)c1 [CCCP, Carbonyl cyanide m-chlorophenyl hydrazone]
effect of ion-targeting inhibitor on FICI of tedizolid phosphate/lysozyme combination (MRSA [7]; cells incubated with the inhibitor): significant increase in FICI

CC1=C(C(=O)O)N2C(=O)[C@@H](NC(=O)[C@H](N)C3=CCC=CC3)[C@H]2SC1 [Cefradine]
Growth inhibition ratio (mean ± SD, %) MRSA (MRSA [2]): 48.66 ± 13.26%
Growth inhibition ratio (mean ± SD, %) MRSE (MRSE [3]): 33.52 ± 23.07%
